A word on the IC50: it is the point on the concentration scale where inhibition reaches its midpoint. The CC50 is the concentration that lowers cell viability or growth by half. As usually defined, the EC50 is the midpoint of the concentration-response curve. What is called half-life is the time in which the quantity being followed falls by half. High values mean slow loss, low ones fast loss. As usually defined, the Cmax is the highest concentration seen after dosing. One may read the bioavailability as the share of a dose that reaches the circulation, judged against a reference dose that is usually intravenous. Higher therefore signals good availability. Usually Tmax stands for the time from dosing to the highest level.

The target in series [1] is T1, Human immunodeficiency virus type 1 integrase (Human immunodeficiency virus 1, UniProt Q7ZJM1). Kind of series: Inhibition of HIV1 integrase 3' strand transfer activity.
T1 sequence (Q7ZJM1 whole entry): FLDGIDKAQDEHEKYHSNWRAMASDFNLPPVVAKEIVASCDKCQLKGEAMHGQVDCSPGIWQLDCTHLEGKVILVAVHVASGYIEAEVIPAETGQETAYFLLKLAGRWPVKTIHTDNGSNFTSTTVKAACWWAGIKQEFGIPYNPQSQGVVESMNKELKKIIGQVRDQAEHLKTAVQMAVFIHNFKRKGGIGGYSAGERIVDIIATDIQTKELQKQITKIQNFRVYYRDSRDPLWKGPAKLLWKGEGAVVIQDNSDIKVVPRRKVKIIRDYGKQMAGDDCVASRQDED
The next series concerns CCRF-CEM. Kind of series: Cytotoxicity against human CEM cells. The format is functional.
For series [2], the target named is T1, Human immunodeficiency virus type 1 integrase. Kind of series: Inhibition of HIV1 integrase 3' processing activity.
Series [3] relates to Human immunodeficiency virus 1. Kind of series: Antiviral activity against HIV1 Rf infected in CEM cells assessed as inhibition of viral replication after 5 days. The series is classed as functional, organism-based. The settings on record: Human immunodeficiency virus 1, Rf, CCRF-CEM, 120 h.
A further series deals with Rattus norvegicus. As to the kind of experiment: Volume of distribution at steady state in rat at 5 mg/kg, po and 2 mg/kg, iv. To be noted: in vivo.
Series [4] in a line: Half life in rat at 2 mg/kg, iv. The settings on record: in vivo.
The nature of series [5]: Cmax in rat at 5 mg/kg, po. The arrangement: dose 5 mg/kg, route oral. The settings on record: in vivo. The series is classed as ADME, organism-based.
Series [6] in a line: Oral bioavailability in rat at 5 mg/kg. The series is classed as ADME, organism-based. The settings on record: in vivo.
The nature of series [7]: Plasma clearance in rat at 5 mg/kg, po and 2 mg/kg, iv.
Series [8] is described as follows: Tmax in rat at 5 mg/kg, po and 2 mg/kg, iv. The settings on record: in vivo.
Series [9] can be described thus: Cmax in rat at 2 mg/kg, iv. The settings on record: in vivo.
Series [10] in a line: Half life in rat at 5 mg/kg, po. The series is classed as ADME, organism-based. The arrangement: dose 5 mg/kg, route oral. To be noted: in vivo.

The structures appear in SMILES notation.

Consider `CC1(C)C=Cc2c(ccc3c2C(=O)C(O)=C(C2=C(C4=C(O)C(=O)c5c(ccc6c5C=CC(C)(C)O6)C4=O)C(=O)c4ccccc4C2=O)C3=O)O1`, for which the concentration for half-maximal inhibition (IC50) in series [1] was found to be 2 µM; in [2], 2.5 µM. In the series with CCRF-CEM, this compound came in with a CC50 of 10 µM. Further, the EC50 in series [3] turned out to be 0.029 µM.
The corresponding values for `COc1ccc2c(c1)C(=O)C(C1=C(O)C(=O)c3c(ccc4c3C=CC(C)(C)O4)C1=O)=C(C1=C(O)C(=O)c3c(ccc4c3C=CC(C)(C)O4)C1=O)C2=O` are 2.5 µM, 2.3 µM, 10 µM and 0.027 µM.
Take `CCCOc1ccc2c(c1)C(=O)C(C1=C(O)C(=O)c3c(ccc4c3C=CC(C)(C)O4)C1=O)=C(C1=C(O)C(=O)c3c(ccc4c3C=CC(C)(C)O4)C1=O)C2=O`: the figures for the IC50 in series [1] and in series [2] were 5 µM and 2.8 µM, respectively. In addition, in the series on CCRF-CEM, the CC50 was found to be 1 µM. The EC50 in series [3] came out at 0.009 µM.
Take `CC(C)Oc1ccc2c(c1)C(=O)C(C1=C(O)C(=O)c3c(ccc4c3C=CC(C)(C)O4)C1=O)=C(C1=C(O)C(=O)c3c(ccc4c3C=CC(C)(C)O4)C1=O)C2=O`: the IC50 was above 100 µM in series [1] and 3 µM in [2]. In addition, in the series with CCRF-CEM, the cytotoxic concentration (CC50) is above 20 µM. The EC50 in [3] turned out to be 0.24 µM.
The corresponding values for `CC1(C)C=Cc2c(ccc3c2C(=O)C(O)=C(C2=C(C4=C(O)C(=O)c5c(ccc6c5C=CC(C)(C)O6)C4=O)C(=O)c4c(ccc5c4C=CC(C)(C)O5)C2=O)C3=O)O1` are 3 µM, 1.7 µM, above 20 µM and 0.39 µM.
`CC1(C)CCc2c(ccc3c2C(=O)C(O)=C(C2=C(C4=C(O)C(=O)c5c(ccc6c5CCC(C)(C)O6)C4=O)C(=O)c4c(ccc5c4CCC(C)(C)O5)C2=O)C3=O)O1` registered a half-inhibitory concentration (IC50) in series [1] of 9 µM.
`CC1(C)C=Cc2c(ccc3c2C(=O)C(O)=C(C2=C(C4=C(O)C(=O)c5c(ccc6c5C=CC(C)(C)O6)C4=O)C(=O)c4c(ccc5c4CCC(C)(C)O5)C2=O)C3=O)O1` registered a Vdss in the series on Rattus norvegicus of 27.7 mL. The half-life was 45 h in series [4] and 21.7 h in series [10]. In addition, the Cmax in [5] worked out at 3200 ng/mL; in series [9], 50200 ng/mL. Also, the IC50 in [1] is 6 µM; in series [2], 1.8 µM. Moreover, in series [6], the bioavailability came out at 2.6%. Besides, the clearance in [7] was 0.00733 mL/min. Besides, the Tmax in [8] amounted to 7.5 h. Moreover, the CC50 in the series on CCRF-CEM is above 20 µM. For the same compound, in series [3], the EC50 worked out at 0.47 µM.
As for `CC1(C)C=Cc2c(ccc3c2C(=O)C(O)=C(C2=C(C4=C(O)C(=O)c5c(ccc6c5C=CC(C)(C)O6)C4=O)C(=O)N(Cc4ccccc4)C2=O)C3=O)O1`, the values for the concentration for half-maximal inhibition (IC50) in [1] and in [2] were 4 µM and 4.5 µM, respectively. Moreover, the EC50 in [3] is above 20 µM.
For the compound `COc1cccc2c1C(=O)C(C1=C(C3=C(O)C(=O)c4cccc(OC)c4C3=O)C(=O)c3ccccc3C1=O)=C(O)C2=O`, the IC50 in [1] worked out at 13 µM. Also, the EC50 in series [3] was above 20 µM.
Consider `COc1ccc2c(c1)C(=O)C(O)=C(C1=C(C3=C(O)C(=O)c4cc(OC)ccc4C3=O)C(=O)c3ccccc3C1=O)C2=O`, for which the IC50 in series [1] came to 10 µM; in [2] it was 22.5 µM. In series [3], the EC50 is above 20 µM.
Consider `COc1cc2c(cc1OC)C(=O)C(C1=C(C3=C(O)C(=O)c4cc(OC)c(OC)cc4C3=O)C(=O)c3ccccc3C1=O)=C(O)C2=O`, for which the IC50 in [1] was found to be 12 µM; in series [2], 62 µM. The EC50 in [3] was above 20 µM.
As to `O=C1C(O)=C(C2=C(C3=C(O)C(=O)c4ccccc4C3=O)C(=O)c3ccccc3C2=O)C(=O)c2ccccc21`, the IC50 in series [1] came to 13 µM; in series [2], 56 µM. Moreover, the CC50 in the series with CCRF-CEM amounted to 48 µM. Also, in series [3], the EC50 turned out to be 16 µM.
In the case of `COc1cc2c(cc1OC)C(=O)C(C1=C(C3=C(O)C(=O)c4cc(OC)c(OC)cc4C3=O)C(=O)c3cc(OC)c(OC)cc3C1=O)=C(O)C2=O`, the values for the concentration for half-maximal inhibition (IC50) in series [1] and in series [2] were 10 µM and above 150 µM, respectively.

The record behind these values is ChEMBL document CHEMBL1221315, “Antiviral agents 2. Synthesis of trimeric naphthoquinone analogues of conocurvone and their antiviral evaluation against HIV” (Bioorg Med Chem, 2010).
